Results taken from US20160272627A1, “POLYMORPHIC FORMS OF SUVOROXANT” (priority 2012, published 2016).

How the values were obtained:
Assay type in all cases: physicochemical
[1] = Slurrying of Form A in solvents (Examples 26 to 38); settings: slurrying in few solvents (Examples 26 to 38), 27° C., 17-24 hours
Procedure: Suvorexant Form-A (500 mg) and methanol (20 ml) were introduced in 100 ml round bottom flask. The heterogeneous mixture so obtained was stirred at 27° C. for 17 hours and the solid substance was then filtered under vacuum. The product was dried at 60° C. in air tray drier to obtain Form B.
The process of example 26 was repeated wherein methanol was replaced by following solvents to obtain Form B: […]

[2] = Slurry of Form B in water at about room temperature, solid analysed with XRD
Procedure: (§1) All PXRD data reported herein are obtained using a Bruker AXS D8 Advance Powder X-ray Diffractometer or a PANalytical X-ray Diffractometer, using copper Kα radiation wavelength 1.5418 Å.
Suvorexant Form B (500 mg) and water (10 ml) were introduced in round bottom flask. The heterogeneous mixture so obtained was slurried with stirring at about room temperature for about 1 hour. The heterogeneous mixture was divided in to two parts. The first part was filtered under vacuum. The filtered solid was analyzed after 2 hour and 4 hours. The solid obtained after 2 hour and 4 hours were Form B up on analysis with XRD. The second part was stirred over night at room temperature and then filtered under vacuum. The solid obtained from second part was Form B up on analysis with XRD.

[3] = Slurry of Form B in water at about 80° C., solid analysed with XRD; settings: water slurry at about 80° C. for about 1 hour, filtered at 80° C.
Procedure: as §1
Suvorexant Form B (500 mg) and water (10 ml) were introduced in round bottom flask. The heterogeneous mixture so obtained was slurried with stirring at about 80° C. for about 1 hour and the solid substance was then filtered under vacuum at 80° C. The filtered solid was analyzed after 1 hour and 4 hours. The solid obtained after 1 hour and 4 hours were Form B up on analysis with XRD.

Row | SMILES | polymorphic form conversion up on slurrying [1] | polymorphic form of the solid up on analysis with XRD ([2]; water slurry at about room temperature for about 1 hour, first part filtered, filtered solid analyzed after 2 hour) | polymorphic form of the solid up on analysis with XRD ([2]; water slurry at about room temperature for about 1 hour, first part filtered, filtered solid analyzed after 4 hours) | polymorphic form of the solid up on analysis with XRD ([2]; water slurry, second part stirred over night at room temperature, then filtered) | polymorphic form of the solid up on analysis with XRD ([3]; filtered solid analyzed after 1 hour) | polymorphic form of the solid up on analysis with XRD ([3]; filtered solid analyzed after 4 hours)
1 | Cc1ccc(-n2nccn2)c(C(=O)N2CCN(c3nc4cc(Cl)ccc4o3)CC[C@H]2C)c1 [Form A, 5-chloro-2-{(5R)-5-methyl-4-[5-methyl-2-(2H-1,2,3-triazol-2-yl)benzoyl]-1,4-diazepan-1 yl}-1,3-benzoxazole] | converted in to Form B | – | – | – | – | –
2 | Cc1ccc(-n2nccn2)c(C(=O)N2CCN(c3nc4cc(Cl)ccc4o3)CC[C@H]2C)c1 [Suvorexant Form B, 5-chloro-2-{(5R)-5-methyl-4-[5-methyl-2-(2H-1,2,3-triazol-2-yl)benzoyl]-1,4-diazepan-1 yl}-1,3-benzoxazole] | – | Form B | Form B | Form B | Form B | Form B
